Experiments:
[1] = target: Beta-2 adrenergic receptor (Homo sapiens, UniProt P07550)
B2 bradykinin receptor = target: T1, B2 bradykinin receptor (Homo sapiens, UniProt P30411)
T1 sequence (P30411 whole entry): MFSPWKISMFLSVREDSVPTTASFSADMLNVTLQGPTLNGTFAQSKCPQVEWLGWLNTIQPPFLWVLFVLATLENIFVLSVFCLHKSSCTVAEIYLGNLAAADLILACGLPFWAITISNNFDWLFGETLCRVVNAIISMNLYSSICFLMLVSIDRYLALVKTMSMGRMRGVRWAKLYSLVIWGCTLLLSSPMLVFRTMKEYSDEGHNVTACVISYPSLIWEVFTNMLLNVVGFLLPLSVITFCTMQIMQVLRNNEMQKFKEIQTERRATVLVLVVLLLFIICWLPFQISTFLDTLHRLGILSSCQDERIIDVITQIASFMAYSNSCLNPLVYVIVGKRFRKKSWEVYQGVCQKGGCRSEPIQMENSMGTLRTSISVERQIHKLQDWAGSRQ

[2] = target: Neuronal acetylcholine receptor subunit alpha-4 (Homo sapiens, UniProt P43681)
Chain of Neuronal acetylcholine receptor subunit alpha-4 (P43681 whole entry): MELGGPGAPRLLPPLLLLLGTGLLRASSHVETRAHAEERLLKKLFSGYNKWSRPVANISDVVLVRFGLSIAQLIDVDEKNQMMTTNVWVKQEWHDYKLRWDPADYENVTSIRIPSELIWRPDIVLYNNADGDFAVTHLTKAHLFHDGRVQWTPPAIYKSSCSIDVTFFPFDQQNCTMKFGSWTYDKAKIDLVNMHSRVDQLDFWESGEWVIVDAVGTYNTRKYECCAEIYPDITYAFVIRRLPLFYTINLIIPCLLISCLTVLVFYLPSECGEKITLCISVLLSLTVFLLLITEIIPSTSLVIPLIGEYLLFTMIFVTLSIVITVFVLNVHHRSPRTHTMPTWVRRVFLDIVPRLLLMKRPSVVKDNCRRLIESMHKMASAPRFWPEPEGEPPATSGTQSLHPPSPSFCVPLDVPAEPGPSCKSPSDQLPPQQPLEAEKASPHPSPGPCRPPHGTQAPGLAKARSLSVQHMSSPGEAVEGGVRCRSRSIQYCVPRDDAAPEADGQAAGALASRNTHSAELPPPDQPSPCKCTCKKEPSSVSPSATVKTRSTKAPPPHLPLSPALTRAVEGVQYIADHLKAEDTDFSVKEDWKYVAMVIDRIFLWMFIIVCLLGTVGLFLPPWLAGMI

Cannabinoid receptor 1 = Cannabinoid receptor 1 (Homo sapiens, UniProt P21554)
Chain of Cannabinoid receptor 1 (P21554 whole entry): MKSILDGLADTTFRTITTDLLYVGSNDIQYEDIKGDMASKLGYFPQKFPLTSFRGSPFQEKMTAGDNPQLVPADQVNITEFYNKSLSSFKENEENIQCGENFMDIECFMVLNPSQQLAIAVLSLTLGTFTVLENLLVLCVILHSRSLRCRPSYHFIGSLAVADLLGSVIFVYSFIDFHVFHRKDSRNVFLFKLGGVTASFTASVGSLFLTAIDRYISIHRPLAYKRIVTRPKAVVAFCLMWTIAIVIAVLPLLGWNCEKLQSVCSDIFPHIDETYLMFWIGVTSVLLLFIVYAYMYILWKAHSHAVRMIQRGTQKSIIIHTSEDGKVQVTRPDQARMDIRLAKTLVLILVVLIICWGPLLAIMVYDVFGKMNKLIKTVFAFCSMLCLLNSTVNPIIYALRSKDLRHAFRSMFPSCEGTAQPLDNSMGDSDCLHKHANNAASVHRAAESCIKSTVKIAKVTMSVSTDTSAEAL

Endothelin-1 receptor = target: T2, Endothelin-1 receptor (Homo sapiens, UniProt P25101)
T2 sequence (P25101 whole entry): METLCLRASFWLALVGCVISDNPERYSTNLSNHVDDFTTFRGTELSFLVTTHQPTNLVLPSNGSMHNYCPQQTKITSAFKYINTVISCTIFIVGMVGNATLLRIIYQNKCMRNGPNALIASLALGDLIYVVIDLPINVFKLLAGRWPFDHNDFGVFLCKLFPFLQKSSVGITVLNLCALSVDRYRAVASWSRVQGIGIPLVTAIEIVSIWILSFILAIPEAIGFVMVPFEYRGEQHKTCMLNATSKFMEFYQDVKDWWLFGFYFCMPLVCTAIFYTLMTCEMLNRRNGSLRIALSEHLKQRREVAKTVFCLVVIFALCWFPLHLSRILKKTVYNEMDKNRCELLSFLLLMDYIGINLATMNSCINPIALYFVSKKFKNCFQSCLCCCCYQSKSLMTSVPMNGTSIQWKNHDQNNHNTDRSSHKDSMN

[3] = target: Gamma-aminobutyric acid receptor subunit alpha-1 (Rattus norvegicus, UniProt P62813)
Chain of Gamma-aminobutyric acid receptor subunit alpha-1 (P62813 whole entry): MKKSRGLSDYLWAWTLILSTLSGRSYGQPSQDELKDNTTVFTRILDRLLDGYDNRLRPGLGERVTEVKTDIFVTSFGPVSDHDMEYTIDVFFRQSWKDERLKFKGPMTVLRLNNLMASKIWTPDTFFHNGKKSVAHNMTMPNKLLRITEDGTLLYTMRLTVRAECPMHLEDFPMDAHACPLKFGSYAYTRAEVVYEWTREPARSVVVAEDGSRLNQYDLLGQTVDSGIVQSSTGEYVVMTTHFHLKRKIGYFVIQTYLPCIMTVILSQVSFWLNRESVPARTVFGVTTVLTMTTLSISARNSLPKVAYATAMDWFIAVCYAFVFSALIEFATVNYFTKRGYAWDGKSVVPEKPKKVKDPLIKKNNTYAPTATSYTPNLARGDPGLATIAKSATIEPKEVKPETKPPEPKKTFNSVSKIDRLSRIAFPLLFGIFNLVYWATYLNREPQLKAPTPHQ

[4] = target: Delta-type opioid receptor (Homo sapiens, UniProt P41143)
Chain of Delta-type opioid receptor (P41143 whole entry): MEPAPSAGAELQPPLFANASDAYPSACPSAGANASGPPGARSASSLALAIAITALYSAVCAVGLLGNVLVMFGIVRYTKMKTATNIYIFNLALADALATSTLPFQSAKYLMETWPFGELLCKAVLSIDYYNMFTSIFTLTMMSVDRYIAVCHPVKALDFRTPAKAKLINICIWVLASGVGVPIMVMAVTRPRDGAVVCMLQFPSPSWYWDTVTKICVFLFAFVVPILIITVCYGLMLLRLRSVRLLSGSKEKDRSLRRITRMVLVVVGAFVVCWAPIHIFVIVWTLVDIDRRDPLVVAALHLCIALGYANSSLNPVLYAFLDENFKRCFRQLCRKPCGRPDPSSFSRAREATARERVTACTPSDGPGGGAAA

Mu-type opioid receptor = Mu-type opioid receptor (Homo sapiens, UniProt P35372)
Chain of Mu-type opioid receptor (P35372 whole entry): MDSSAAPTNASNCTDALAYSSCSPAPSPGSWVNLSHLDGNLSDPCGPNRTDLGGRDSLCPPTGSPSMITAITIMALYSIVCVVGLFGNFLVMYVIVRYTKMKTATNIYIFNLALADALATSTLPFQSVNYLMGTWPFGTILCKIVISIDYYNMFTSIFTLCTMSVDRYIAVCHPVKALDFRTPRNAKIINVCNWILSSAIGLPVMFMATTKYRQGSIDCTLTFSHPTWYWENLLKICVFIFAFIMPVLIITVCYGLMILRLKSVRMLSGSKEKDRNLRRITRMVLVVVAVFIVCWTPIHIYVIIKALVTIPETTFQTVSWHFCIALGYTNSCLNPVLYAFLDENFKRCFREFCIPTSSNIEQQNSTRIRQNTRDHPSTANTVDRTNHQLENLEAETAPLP

[5] = target: T3, Amine oxidase [flavin-containing] A (Homo sapiens, UniProt P21397); assay type: functional
T3 sequence (P21397 whole entry): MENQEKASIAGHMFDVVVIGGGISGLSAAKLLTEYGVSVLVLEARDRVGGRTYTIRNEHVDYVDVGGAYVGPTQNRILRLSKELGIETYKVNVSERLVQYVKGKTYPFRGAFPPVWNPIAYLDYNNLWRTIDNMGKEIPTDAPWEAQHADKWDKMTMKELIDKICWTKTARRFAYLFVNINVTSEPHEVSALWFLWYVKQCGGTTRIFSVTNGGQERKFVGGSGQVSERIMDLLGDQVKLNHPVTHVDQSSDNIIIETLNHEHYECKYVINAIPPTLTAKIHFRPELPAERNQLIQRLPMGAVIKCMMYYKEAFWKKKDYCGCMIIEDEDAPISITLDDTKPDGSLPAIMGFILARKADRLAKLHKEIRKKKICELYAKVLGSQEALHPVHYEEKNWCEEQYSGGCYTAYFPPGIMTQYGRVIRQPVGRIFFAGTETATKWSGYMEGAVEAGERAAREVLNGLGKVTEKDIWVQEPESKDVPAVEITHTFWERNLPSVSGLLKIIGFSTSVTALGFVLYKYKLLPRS

[6] = target: T4, Alpha-1A adrenergic receptor (Homo sapiens, UniProt P35348); assay type: functional, cell-based
T4 sequence (P35348 whole entry): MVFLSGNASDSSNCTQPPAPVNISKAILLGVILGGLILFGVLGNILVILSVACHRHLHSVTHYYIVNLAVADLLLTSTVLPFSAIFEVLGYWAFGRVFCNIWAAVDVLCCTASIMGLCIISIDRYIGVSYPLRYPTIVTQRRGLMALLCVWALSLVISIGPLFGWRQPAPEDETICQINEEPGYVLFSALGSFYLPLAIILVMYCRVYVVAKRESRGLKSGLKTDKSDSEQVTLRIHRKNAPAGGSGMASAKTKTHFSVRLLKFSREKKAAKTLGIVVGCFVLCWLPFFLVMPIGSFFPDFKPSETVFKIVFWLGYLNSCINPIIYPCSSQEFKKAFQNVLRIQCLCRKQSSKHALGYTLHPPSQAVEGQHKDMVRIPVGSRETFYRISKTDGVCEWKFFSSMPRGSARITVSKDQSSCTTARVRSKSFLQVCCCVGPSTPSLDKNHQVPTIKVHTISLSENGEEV

[7] = target: T4, Alpha-1A adrenergic receptor; assay type: functional, cell-based; remark: listed apart in the source
Note: assay procedure not described here.

Chain of Beta-2 adrenergic receptor (P07550 whole entry): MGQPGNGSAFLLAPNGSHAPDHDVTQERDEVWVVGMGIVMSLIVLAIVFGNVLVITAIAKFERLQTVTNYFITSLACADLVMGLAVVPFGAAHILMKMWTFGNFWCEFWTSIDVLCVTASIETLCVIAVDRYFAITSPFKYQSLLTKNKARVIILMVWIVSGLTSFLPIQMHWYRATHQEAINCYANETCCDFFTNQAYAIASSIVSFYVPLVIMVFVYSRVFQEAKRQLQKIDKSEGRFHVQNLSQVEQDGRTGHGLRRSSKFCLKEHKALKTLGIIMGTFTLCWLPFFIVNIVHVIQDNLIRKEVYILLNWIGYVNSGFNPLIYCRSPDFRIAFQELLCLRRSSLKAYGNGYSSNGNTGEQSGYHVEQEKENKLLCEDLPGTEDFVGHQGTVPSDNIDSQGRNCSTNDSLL

CO[C@H]1/C=C/O[C@@]2(C)Oc3c(C)c(O)c4c(O)c(c(/C=N/N5CCN(C)CC5)c(O)c4c3C2=O)NC(=O)/C(C)=C\C=C\[C@H](C)[C@H](O)[C@@H](C)[C@@H](O)[C@@H](C)[C@H](OC(C)=O)[C@@H]1C [RIFAMPIN]
AC50 [1]: 29 µM | AC50 (B2 bradykinin receptor): 18.6 µM | AC50 [2]: 22 µM | AC50 (Cannabinoid receptor 1): > 30 µM | AC50 (Endothelin-1 receptor): > 30 µM | AC50 [3]: > 30 µM | AC50 [4]: 17 µM | AC50 (Mu-type opioid receptor): 8 µM | AC50 [5]: > 30 µM | AC50 [6]: > 30 µM

O=C1C(CC[S+]([O-])c2ccccc2)C(=O)N(c2ccccc2)N1c1ccccc1 (stereo not given) [SULFINPYRAZONE]
AC50 [1]: > 10 µM | AC50 (B2 bradykinin receptor): > 10 µM | AC50 [2]: > 10 µM | AC50 (Cannabinoid receptor 1): > 10 µM | AC50 [3]: > 10 µM | AC50 [4]: > 30 µM | AC50 (Mu-type opioid receptor): > 30 µM | AC50 [5]: > 10 µM | AC50 [6]: > 30 µM

CC(N)C12CC3CC(CC(C3)C1)C2 (stereo not given) [RIMANTADINE]
AC50 [1]: > 10 µM | AC50 (B2 bradykinin receptor): > 10 µM | AC50 [2]: > 10 µM | AC50 (Cannabinoid receptor 1): > 10 µM | AC50 [3]: > 10 µM | AC50 [4]: > 30 µM | AC50 (Mu-type opioid receptor): > 30 µM | AC50 [5]: > 10 µM

C[N+](C)(C)C[C@H](O)CC(=O)[O-] [LEVOCARNITINE]
AC50 [7]: > 30 µM

CN(C)CCC[C@@]1(c2ccc(F)cc2)OCc2cc(C#N)ccc21 [ESCITALOPRAM]
AC50 (B2 bradykinin receptor): > 30 µM | AC50 [2]: > 30 µM | AC50 (Endothelin-1 receptor): > 30 µM | AC50 [4]: > 30 µM | AC50 [5]: > 30 µM

C[C@H](CCC(=O)O)[C@H]1CC[C@H]2[C@@H]3[C@@H](O)C[C@@H]4C[C@H](O)CC[C@]4(C)[C@H]3CC[C@]12C [URSODIOL]
AC50 [2]: > 30 µM | AC50 (Endothelin-1 receptor): > 30 µM | AC50 [4]: > 30 µM | AC50 (Mu-type opioid receptor): > 30 µM | AC50 [5]: > 30 µM | AC50 [6]: > 30 µM

CN1C[C@H](C(=O)N[C@]2(C)O[C@@]3(O)[C@@H]4CCCN4C(=O)[C@H](Cc4ccccc4)N3C2=O)C=C2c3cccc4[nH]cc(c34)C[C@H]21 [ERGOTAMINE]
AC50 [2]: > 30 µM | AC50 (Endothelin-1 receptor): > 30 µM | AC50 [4]: > 30 µM | AC50 (Mu-type opioid receptor): > 30 µM | AC50 [5]: > 30 µM

C[C@H]1O[C@@H](n2cc(F)c(=O)[nH]c2=O)[C@H](O)[C@@H]1O [DOXIFLURIDINE]
AC50 [7]: > 30 µM

COc1ccccc1Oc1c(NS(=O)(=O)c2ccc(C(C)(C)C)cc2)nc(-c2ncccn2)nc1OCCO [BOSENTAN]
AC50 [1]: > 10 µM | AC50 (B2 bradykinin receptor): > 30 µM | AC50 [2]: > 30 µM | AC50 (Cannabinoid receptor 1): > 10 µM | AC50 [3]: > 10 µM | AC50 [4]: > 30 µM | AC50 (Mu-type opioid receptor): > 30 µM | AC50 [5]: > 10 µM | AC50 [6]: > 30 µM

C[C@]12C=CC(=O)N[C@@H]1CC[C@@H]1[C@@H]2CC[C@]2(C)[C@@H](C(=O)Nc3cc(C(F)(F)F)ccc3C(F)(F)F)CC[C@@H]12 [DUTASTERIDE]
AC50 [1]: > 10 µM | AC50 (B2 bradykinin receptor): > 10 µM | AC50 [2]: > 10 µM | AC50 (Cannabinoid receptor 1): > 10 µM | AC50 [3]: > 10 µM | AC50 [4]: > 30 µM | AC50 (Mu-type opioid receptor): > 30 µM | AC50 [5]: > 10 µM | AC50 [6]: > 30 µM

O=C(O)COc1ccc(C(=O)c2cccs2)c(Cl)c1Cl
AC50 [7]: > 30 µM

CC(C)c1nc(N(C)S(C)(=O)=O)nc(-c2ccc(F)cc2)c1/C=C/[C@@H](O)C[C@@H](O)CC(=O)O [ROSUVASTATIN]
AC50 (B2 bradykinin receptor): > 30 µM | AC50 [2]: > 30 µM | AC50 (Endothelin-1 receptor): > 30 µM | AC50 [3]: > 30 µM | AC50 [4]: > 30 µM | AC50 (Mu-type opioid receptor): > 30 µM | AC50 [5]: > 30 µM | AC50 [6]: > 30 µM

CN(C)CC[C@@H](c1ccc(Cl)cc1)c1ccccn1 [DEXCHLORPHENIRAMINE]
AC50 [1]: > 30 µM | AC50 (B2 bradykinin receptor): > 30 µM | AC50 [2]: > 30 µM | AC50 (Endothelin-1 receptor): > 30 µM | AC50 [3]: > 30 µM | AC50 [4]: > 30 µM | AC50 [5]: > 30 µM | AC50 [6]: > 30 µM

— ChEMBL document CHEMBL5291721, “A preclinical secondary pharmacology resource illuminates target-adverse drug reaction associations of marketed drugs” (Nat Commun, 2023)
